Data published in publication PMC10672221, “The Plant Defensin Ppdef1 Is a Novel Topical Treatment for Onychomycosis” (Journal of Fungi, 2023).
Positions of bridges follow the written chain, without caps; N, C: chain ends. No end group written: not given here.

What was measured:
[1] = Nail penetration assay (Franz cell nail adaptors); type: in vitro ADME, human; conditions: for average penetration per day at Days 7-10: Ppdef1 1% (six replicates), terbinafine 1% in same vehicle (four replicates); for maximum level of penetration on any one day: 10 days daily application, efinaconazole 10% as Jublia (maximum on day 8); for applied dose that penetrated the nails on all days, except for terbinafine on Days 7 and 9: efinaconazole 10%
Method: Nail penetration assays were conducted essentially as described by Hui et al.. Human fingernail clippings (minimum size: 6.5 mm × 6.5 mm) were hydrated by placing them on folded Kimwipe tissues soaked in 3 mL of phosphate-buffered saline (PBS, pH 7.4) for 3 h at 26 °C. After hydration, nails were placed in plastic Franz cell nail adaptors (Perme Gear, Hellerton, PA, USA) with cotton wool (20 mg ± 2 mg) pre-soaked with 100 µL of phosphate-buffered saline with Tween 0.05% (PBST, pH 7.4) placed underneath the nail. Nails were sealed into the adaptors with silicone and checked for leaks by applying 10 µL of water to the top of the nail for at least 20 min (RT). Ppdef1 drug product (10 µL; 1% Ppdef1 in 50 mM acetate buffer, pH 4.0, 20% isopropanol, 20% propylene glycol), terbinafine (1% in 50 mM acetate buffer, pH 4.0, 20% isopropanol, 20% propylene glycol), or efinaconazole (formulated as Jublia (Valeant)) was applied to the top of the nail, and nails were incubated at 26 °C for 16 h in a Petri dish. A moist Kimwipe was added to the Petri dish to maintain humidity. After 16 h, the cotton wool was removed from the underside of the nail and set aside for analysis. The top of the nail was washed to collect excess test compound that had not penetrated the nail. First, a dry cotton swab was used to collect any excess liquid on the nail. A second swab soaked in 100 µL of water was then wiped over the top of the nail. An additional dry swab was used to collect any remaining liquid. A fresh piece of cotton wool soaked in 100 µL PBST was added to the underside of the nail. The nail was incubated at 26 °C for 1 h to allow for rehydration. Additional test solution (10 µL) was applied, and the process was repeated daily for 10 days. To quantify the amount of test item that had penetrated the nail, cotton wool removed from the underside of the nail was washed twice with 500 mM CaCl2 (200 µL) and then once with 0.1% TFA (200 µL). The cotton wool was incubated with the wash solution for 10 min at 26 °C for each wash. Cotton wool washes were pooled and analysed using RP-HPLC (300SB-C8 analytical column attached to a 1200 series HPLC (Agilent, Santa Clara, CA, USA)). Ethics approval for use of the nail clippings was granted by the La Trobe University Human Ethics Committee for the collection of nail clippings (approval number: HEC18414).

C. albicans cells = assay: Propidium iodide uptake in response to antifungal treatment (flow cytometry); type: cell-based, Candida albicans; conditions: 30 min; for treated cells no longer viable (PI positive): 50 µg/mL; for treated cells no longer viable (PI positive) / treated cells no longer viable / cells killed (PI positive): 30 °C, 1/2 PDB, flow cytometry; for treated cells no longer viable / cells killed (PI positive): 100 µg/mL
Method: A culture of C. albicans cells (OD600 = 0.3 in ½ PDB) was prepared. Aliquots of the culture (300 µL) were transferred to 1.5 mL tubes and treated with 3.125, 6.25, 12.5, 25, 50, or 100 µg/mL of Ppdef1, efinaconazole, ciclopirox, terbinafine, or tavaborole. Water or dimethyl sulfoxide (DMSO) was added to the untreated control samples. Propidium iodide (2 µL of 1 mg/mL stock) was also added to each sample, and the cells were incubated for 30 min at 30 °C before they were pelleted using centrifugation, resuspended in 300 µL of PBS and transferred to the wells of a 96-well plate. Cells were assessed for fluorescence using the PI channel on a FACS Canto 2 flow cytometer (BD). Cells with fluorescence of more than 185 rfu were considered positive for PI uptake.

[2] = system: T. rubrum growing on human nail fragments; assay: Cell killing of T. rubrum growing on nail fragments (PrestoBlue); type: cell-based, Trichophyton rubrum
Method: Human nail fragments (~2 mm × 2 mm) were sterilized in water at 99 °C for 4 h. A single nail fragment was placed into each well of a 96-well microtiter plate along with 100 µL of sterile water. T. rubrum conidia (100 µL) were added to obtain a final concentration of 1.5 × 10^5 conidia/mL. Control wells were inoculated with water only. Plates were then incubated for 96 h at 28 °C without shaking to allow T. rubrum to colonise the nail material. After the nail fragments were colonised with T. rubrum, they were treated with Ppdef1 or efinaconazole at a final concentration of 100 or 200 µg/mL. Six replicate wells were used per treatment, and two independent replicates were performed. As efinaconazole was dissolved in ethanol, all wells treated with Ppdef1 were adjusted with ethanol to a final concentration of 1% ethanol. Plates were then incubated for 20 h at 28 °C.
After the 20 h incubation, 20 µL of PrestoBlue® (Thermo Fisher, Scoresby, Victoria, Australia) was added to each well, and the mixture was transferred to a black-wall, clear-bottom microplate. […] The reaction was allowed to proceed for 24 h before fluorescence was measured in an M5e spectrophotometer (Molecular Devices, San Jose, CA, USA) using an excitation wavelength of 560 nm and an emission wavelength of 590 nm as described in the manufacturer’s instructions (Thermo Fisher, Scoresby, Victoria, Australia).

[3] = systemic (oral), after a 12 week treatment; cited from earlier work
From the text: These infections are hard to treat, can be painful, and have a cosmetic impact on the patient. Current topical treatments for onychomycosis require daily or weekly application for 48 weeks, and even these exhaustive treatment regimens produce low complete cure rates. Until 2014, […]® and its generic equivalents, with the active ingredient ciclopirox, were the only prescription strength topical onychom ... || Several systemic (oral) treatments have been approved for the treatment of onychomycosis. […] The FDA reported in its review of efinaconazole (Center for Drug Evaluation and Research; […] Fungicidal activity in the presence of keratin is hypothesised to correlate with the clinical efficacy for the topical onychomycosis products, ciclopirox and efinaconazole. The complete cu ...

[4] = 10 µL daily, 26 °C, RP-HPLC, average of six replicates
[5] = 10 µL daily, 26 °C, RP-HPLC, six replicates
[6] = terbinafine 1%, four replicates

Compound	average penetration per day at Days 7-10 ([1]; 10 µL daily, 26 °C, RP-HPLC) [%]	treated cells no longer viable (PI positive) (C. albicans cells)	treated cells no longer viable / cells killed (PI positive) (C. albicans cells)	maximum level of penetration on any one day [1, 6] [%]	applied dose that penetrated the nails on all days, except for terbinafine on Days 7 and 9 ([1]; terbinafine 1%)	cure rate [3] [%]	also measured
AKVCTKPSKFFKGLCGTDGACTTACRKEGLHSGYCQLKGFLNSVCVCRKHC (disulfide 4-51, 15-35, 21-45, 25-47) [Ppdef1]	26.1	–	–	–	–	–	applied dose that penetrated the nail, first day ([1]; 10 µL applied daily, 26 °C, 16 h, cotton wool under nail, RP-HPLC, 1% Ppdef1 in 50 mM acetate pH 4.0, 20% isopropanol, 20% propylene glycol, average of six replicates): 13.3%; applied dose that penetrated the nail, Day 2 [1, 4]: 3.2%; applied dose that penetrated the nail, Day 3 [1, 4]: 2.0%; average penetration per day over Days 4, 5, and 6 [1, 5]: 13.1%; penetration by Day 7 [1, 5]: approximately 26%; applied dose that penetrated the nail on Days 7-10 ([1]; Ppdef1 1%): Greater than 20%; amount passed through the nail ([1]; daily application of 10 µL of a 1% solution for 10 days): more than 150 µg
Cc1cc(C2CCCCC2)n(O)c(=O)c1 [ciclopirox]	–	~ 20%	58.7%	–	–	–	–
C=C1CCN([C@H](C)[C@](O)(Cn2cncn2)c2ccc(F)cc2F)CC1 [efinaconazole]	–	no significant cell death	–	2.2	less than 5%	–	average penetration per day on Days 1-7, 9, and 10 ([1]; efinaconazole 10% (Jublia), four replicates): approximately 0.5%; cell death (PI uptake) (C. albicans cells; any of the tested concentrations (3.125-100 µg/mL)): did not induce a significant cell death; hyphal biomass killed relative to the untreated control ([2]; 200 µg/mL, keratin as sole nutrient source, 1% ethanol, 28 °C, PrestoBlue): little impact; decrease in viable fungi ([2]; either concentration (100 or 200 µg/mL)): did not cause a significant decrease
CN(C/C=C/C#CC(C)(C)C)Cc1cccc2ccccc12 [terbinafine]	3.8	no significant cell death	less than 25%	7.0	less than 5%	38	applied dose that penetrated the nails on Days 7 and 9 ([1]; terbinafine 1%): less than 10%; penetration observed on most days ([1]; terbinafine 1%, daily for 10 days, four replicates): approximately 3.0%
OB1OCc2cc(F)ccc21 [tavaborole]	–	no significant cell death	less than 25%	–	–	–	–
CCC(C)n1ncn(-c2ccc(N3CCN(c4ccc(OCC5COC(Cn6cncn6)(c6ccc(Cl)cc6Cl)O5)cc4)CC3)cc2)c1=O (stereo not shown) [itraconazole]	–	–	–	–	–	14	–
